Three molecules from US9617267B2, “Compounds and methods for kinase modulation, and indications therefor” (Plexxikon Inc., priority 2009, dated 2017) can be followed below.

As a reminder, the IC50 is the concentration needed to halve the response being measured.

Like-named read-outs stand apart in the source and are kept apart here. Where only a bound is given, the exact number is not on record here.

Series [1] concerns the target B-Raf (Homo sapiens (Human), UniProt P15056). As to the kind of experiment: B-Raf kinase activity biochemical assay (AlphaScreen, biotin-MEK1 phosphorylation). The conditions noted are these: B-Raf. In outline:
(§1)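 Compounds from a 0.1 mM DMSO stock were tested at 8 serially diluted points. Kinase reactions with 100 μM ATP (final) ran 45 min at room temperature, then were stopped with EDTA buffer containing anti-phospho-MEK1/2 antibody plus streptavidin donor and protein A acceptor beads.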
A general note: Bead proximity is the source of the signal in Alpha formats.

Series [2] deals with B-Raf. The description is as above. The conditions noted are these: for Biochemical activity ratio B/V600E: ratio of IC50 B-Raf / B-Raf V600E; for Biochemical activity ratio B/C: ratio of IC50 B-Raf / c-Raf-1. Summed up: as §1
The target of series [3] is B-Raf V600E (Homo sapiens (Human), UniProt P15056, V600E). As to the kind of experiment: B-Raf V600E kinase activity biochemical assay (AlphaScreen, biotin-MEK1 phosphorylation). The conditions noted are these: for IC50: B-Raf V600E; for Biochemical activity ratio V600E/C: ratio of IC50 B-Raf V600E / c-Raf-1. In outline: as §1
Chain of B-Raf V600E (P15056 whole entry V600E): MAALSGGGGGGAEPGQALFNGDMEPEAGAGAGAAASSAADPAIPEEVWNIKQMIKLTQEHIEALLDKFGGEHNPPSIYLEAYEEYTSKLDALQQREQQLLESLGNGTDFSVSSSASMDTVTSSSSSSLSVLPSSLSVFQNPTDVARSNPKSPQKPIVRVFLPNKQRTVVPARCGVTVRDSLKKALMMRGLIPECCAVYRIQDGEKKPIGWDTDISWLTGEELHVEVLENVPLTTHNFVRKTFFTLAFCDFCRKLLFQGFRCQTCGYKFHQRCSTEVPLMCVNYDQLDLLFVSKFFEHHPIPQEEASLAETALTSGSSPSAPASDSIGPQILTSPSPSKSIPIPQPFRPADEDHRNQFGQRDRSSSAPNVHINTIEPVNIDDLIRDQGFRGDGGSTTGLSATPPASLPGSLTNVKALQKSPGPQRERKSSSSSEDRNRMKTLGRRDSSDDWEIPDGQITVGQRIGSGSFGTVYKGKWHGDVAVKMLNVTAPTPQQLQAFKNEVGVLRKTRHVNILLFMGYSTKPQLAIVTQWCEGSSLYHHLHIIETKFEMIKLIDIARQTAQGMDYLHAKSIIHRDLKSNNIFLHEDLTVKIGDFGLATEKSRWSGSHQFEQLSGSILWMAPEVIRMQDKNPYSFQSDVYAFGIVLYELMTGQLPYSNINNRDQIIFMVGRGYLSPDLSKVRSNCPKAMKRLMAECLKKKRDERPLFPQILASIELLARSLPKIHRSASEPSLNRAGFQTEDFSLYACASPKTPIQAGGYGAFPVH
Series [4] has as its target c-Raf-1 (Homo sapiens, UniProt P04049). Nature of the series: c-Raf-1 kinase activity biochemical assay (AlphaScreen, biotin-MEK1 phosphorylation). Summed up:
as §1

Series [5] can be described thus: Relative solubility by turbidity threshold concentration in aqueous buffers (pH 1.5, 4.5, 6.8, 7.4). It counts as physicochemical. The settings on record: for turbidity threshold (L, M, H) 1.4: pH 1.4 [sic] (method: SGF pH 1.5); for turbidity threshold (L, M, H) 4.5: pH 4.5 (SIF); for turbidity threshold (L, M, H) 6.8: pH 6.8 (SIF); for turbidity threshold (L, M, H) 7.4: pH 7.4 (HEPES). Summed up:
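Solubility class (high >250 μM, moderate 31.3–250 μM, low <31.3 μM) comes from the concentration where absorbance reaches a 0.01 threshold, averaged across 490/535/650 nm. Samples were compound dilutions from DMSO stock, 1 μL into 99 μL buffer at pH 1.5, 4.5, 6.8 or 7.4.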

Series [6] has as its target CYP1A2 (Homo sapiens (Human), UniProt P05177). As to the kind of experiment: CYP enzyme inhibition, fluorescent substrate (CEC). Summed up: (§2)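 IC50 derived from loss of fluorescent metabolite across a 10-point 1:1 dilution series. CYP2D6: 1.5 pmol enzyme, 1.5 μM AMMC, 30 min at 37 °C, 409/530 nm; CYP1A2: 0.5 pmol, 5 μM CEC, 15 min, 409/460 nm. Compounds pre-incubated 10 min in NADPH-regenerating mix.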

Series [7] addresses CYP2C19 (Homo sapiens (Human), UniProt P33261). As to the kind of experiment: CYP enzyme inhibition, fluorescent substrate (CEC). In outline: (§3)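 10-pt 1:1 serial dilution in co-factor mix (DMSO stock 100 mM); 10 min preincubation, 37 °C; reaction at 37 °C. Readout: fluorescent metabolite of probe substrate. IC50 from signal vs [compound].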
The target of series [8] is CYP2C9 (Homo sapiens (Human), UniProt P11712). Nature of the series: CYP enzyme inhibition, fluorescent substrate (MFC). In outline:
as §3

Series [9] addresses CYP2D6 (Homo sapiens (Human), UniProt P10635). Nature of the series: CYP enzyme inhibition, fluorescent substrate (AMMC). It counts as in vitro ADME. The settings on record: read-out: Cyp IC50 2D6. Summed up:
as §2

Series [10] has as its target CYP3A4(BFC) (Homo sapiens (Human), UniProt P08684). Nature of the series: CYP enzyme inhibition, fluorescent substrate BFC. In outline: as §3
Series [11] deals with CYP3A4(BQ) (Homo sapiens (Human), UniProt P08684). Nature of the series: CYP enzyme inhibition, fluorescent substrate BQ. Summed up: as §3
Chain of CYP3A4(BQ) (P08684 whole entry): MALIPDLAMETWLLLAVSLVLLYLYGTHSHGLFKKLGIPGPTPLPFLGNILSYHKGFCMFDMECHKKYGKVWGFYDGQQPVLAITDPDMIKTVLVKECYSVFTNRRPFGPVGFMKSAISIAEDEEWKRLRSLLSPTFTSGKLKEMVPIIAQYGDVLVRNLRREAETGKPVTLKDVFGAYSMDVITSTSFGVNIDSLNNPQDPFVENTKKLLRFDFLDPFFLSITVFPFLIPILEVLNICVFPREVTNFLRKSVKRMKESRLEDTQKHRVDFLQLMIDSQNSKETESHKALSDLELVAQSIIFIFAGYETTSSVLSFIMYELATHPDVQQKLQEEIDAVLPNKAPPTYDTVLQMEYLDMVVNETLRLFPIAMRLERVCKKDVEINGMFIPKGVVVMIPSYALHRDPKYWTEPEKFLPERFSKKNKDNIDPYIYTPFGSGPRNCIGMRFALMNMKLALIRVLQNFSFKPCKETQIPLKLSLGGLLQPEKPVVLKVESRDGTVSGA
Setting [12] is: read-out: Cyp IC50 2C19, CYP2C19, substrate CEC.
The mark [13] stands for this setting: read-out: Cyp IC50 3A4(BFC), CYP3A4, substrate BFC.
The mark [14] stands for this setting: read-out: Cyp IC50 3A4(BQ), CYP3A4, substrate BQ.

Chain of B-Raf (Homo sapiens (Human), UniProt P15056) (P15056 whole entry): as the sequence (P15056 whole entry V600E) above, with E600V counted along it
Chain of CYP1A2 (P05177 whole entry): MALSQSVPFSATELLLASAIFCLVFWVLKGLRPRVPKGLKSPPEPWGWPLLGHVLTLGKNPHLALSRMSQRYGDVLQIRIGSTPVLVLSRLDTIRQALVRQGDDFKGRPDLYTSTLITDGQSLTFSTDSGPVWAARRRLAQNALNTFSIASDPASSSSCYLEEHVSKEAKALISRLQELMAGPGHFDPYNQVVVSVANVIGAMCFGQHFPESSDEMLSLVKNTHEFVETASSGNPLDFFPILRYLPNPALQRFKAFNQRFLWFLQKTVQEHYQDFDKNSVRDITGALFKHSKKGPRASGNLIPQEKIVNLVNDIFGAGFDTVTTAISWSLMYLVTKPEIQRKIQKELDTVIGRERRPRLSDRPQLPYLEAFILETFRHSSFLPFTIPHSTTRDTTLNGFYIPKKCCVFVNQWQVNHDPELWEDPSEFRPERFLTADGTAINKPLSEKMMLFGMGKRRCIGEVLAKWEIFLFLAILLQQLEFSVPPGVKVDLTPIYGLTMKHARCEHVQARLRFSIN
Chain of c-Raf-1 (P04049 whole entry, looked up): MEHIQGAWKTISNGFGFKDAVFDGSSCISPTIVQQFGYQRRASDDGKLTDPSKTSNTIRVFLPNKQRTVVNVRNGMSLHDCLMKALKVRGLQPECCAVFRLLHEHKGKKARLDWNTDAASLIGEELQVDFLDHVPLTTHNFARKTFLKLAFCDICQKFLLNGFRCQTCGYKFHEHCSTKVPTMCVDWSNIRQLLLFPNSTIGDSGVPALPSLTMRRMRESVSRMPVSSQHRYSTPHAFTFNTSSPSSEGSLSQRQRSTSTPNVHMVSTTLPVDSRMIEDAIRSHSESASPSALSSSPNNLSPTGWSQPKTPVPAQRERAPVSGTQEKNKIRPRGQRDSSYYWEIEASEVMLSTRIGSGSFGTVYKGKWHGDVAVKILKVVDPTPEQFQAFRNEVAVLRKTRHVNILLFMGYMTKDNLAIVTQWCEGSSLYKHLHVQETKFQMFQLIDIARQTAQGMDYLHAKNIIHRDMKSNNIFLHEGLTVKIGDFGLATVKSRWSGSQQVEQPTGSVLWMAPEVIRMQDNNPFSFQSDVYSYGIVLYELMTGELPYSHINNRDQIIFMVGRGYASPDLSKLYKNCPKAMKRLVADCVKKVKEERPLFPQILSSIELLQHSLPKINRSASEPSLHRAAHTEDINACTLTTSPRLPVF
Chain of CYP2C9 (P11712 whole entry): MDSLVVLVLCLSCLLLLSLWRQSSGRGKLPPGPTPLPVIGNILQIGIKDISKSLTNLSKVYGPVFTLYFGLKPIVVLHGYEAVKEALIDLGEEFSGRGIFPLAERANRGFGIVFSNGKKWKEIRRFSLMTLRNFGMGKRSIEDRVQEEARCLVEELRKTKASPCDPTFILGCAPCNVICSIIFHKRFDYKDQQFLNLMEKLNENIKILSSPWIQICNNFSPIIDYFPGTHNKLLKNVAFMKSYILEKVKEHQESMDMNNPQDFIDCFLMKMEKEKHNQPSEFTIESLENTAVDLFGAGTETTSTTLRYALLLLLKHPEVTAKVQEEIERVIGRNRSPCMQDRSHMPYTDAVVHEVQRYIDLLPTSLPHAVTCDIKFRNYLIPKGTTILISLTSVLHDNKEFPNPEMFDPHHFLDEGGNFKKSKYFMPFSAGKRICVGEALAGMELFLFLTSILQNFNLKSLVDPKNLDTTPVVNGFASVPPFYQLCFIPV
Chain of CYP2D6 (P10635 whole entry): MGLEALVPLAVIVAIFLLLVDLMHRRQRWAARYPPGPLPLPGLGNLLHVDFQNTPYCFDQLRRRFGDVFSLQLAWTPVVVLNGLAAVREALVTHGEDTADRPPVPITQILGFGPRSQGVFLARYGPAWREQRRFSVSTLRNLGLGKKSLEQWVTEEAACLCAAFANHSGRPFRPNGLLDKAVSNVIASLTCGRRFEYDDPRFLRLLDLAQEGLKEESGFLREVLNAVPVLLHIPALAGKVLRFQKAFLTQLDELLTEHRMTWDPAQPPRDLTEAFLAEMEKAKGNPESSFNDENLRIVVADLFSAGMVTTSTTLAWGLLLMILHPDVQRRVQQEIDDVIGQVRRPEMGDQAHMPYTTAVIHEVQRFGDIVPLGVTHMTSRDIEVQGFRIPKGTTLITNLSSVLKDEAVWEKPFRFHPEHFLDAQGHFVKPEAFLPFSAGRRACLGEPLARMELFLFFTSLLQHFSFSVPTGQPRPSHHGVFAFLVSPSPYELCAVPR
Chain of CYP2C19 (P33261 whole entry): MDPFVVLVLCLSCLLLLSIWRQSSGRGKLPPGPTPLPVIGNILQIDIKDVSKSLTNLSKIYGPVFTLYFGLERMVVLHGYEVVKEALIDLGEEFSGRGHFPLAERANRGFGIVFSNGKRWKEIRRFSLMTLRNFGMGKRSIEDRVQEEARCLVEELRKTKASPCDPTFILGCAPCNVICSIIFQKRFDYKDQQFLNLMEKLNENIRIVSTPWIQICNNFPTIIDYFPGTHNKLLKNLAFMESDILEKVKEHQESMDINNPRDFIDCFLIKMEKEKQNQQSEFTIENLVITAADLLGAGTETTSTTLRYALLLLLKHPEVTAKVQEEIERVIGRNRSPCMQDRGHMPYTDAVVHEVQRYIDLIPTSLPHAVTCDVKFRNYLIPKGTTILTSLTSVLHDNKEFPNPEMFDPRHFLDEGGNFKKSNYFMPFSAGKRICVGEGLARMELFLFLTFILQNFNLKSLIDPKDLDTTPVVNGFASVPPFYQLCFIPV
Chain of CYP3A4(BFC) (P08684 whole entry): as the sequence (P08684 whole entry) above

For the molecule `CCCS(=O)(=O)Nc1ccc(F)c(C(=O)c2c[nH]c3ncnc(OCC)c23)c1F` [P-1002, Propane-1-sulfonic acid [3-(4-ethoxy-7H-pyrrolo[2,3-d]pyrimidine-5-carbonyl)-2,4-difluoro-phenyl]-amide], the 50% inhibitory concentration (IC50) in series [1] is greater than 0.1 µM; in [3], less than 0.1 µM; in series [4] it was less than 0.1 µM; in [6] it was greater than 10 µM; in [7] it was greater than 10 µM; in series [8], greater than 10 µM. Further, the half-maximal inhibitory concentration (IC50) in series [9], in series [10] and in series [11] was greater than 10 µM throughout. For the same molecule, in [2], the “Biochemical activity ratio B/V600E” value is listed as 0.1-10. Moreover, in series [2], the “Biochemical activity ratio B/C” value is greater than 10. In addition, in [3], the “Biochemical activity ratio V600E/C” value is 0.1-10. In addition, the “turbidity threshold (L, M, H) 1.4” value in series [5] is “H (high solubility if the threshold concentration is >250 μm)”. Further, in series [5], the “turbidity threshold (L, M, H) 4.5” value is recorded as “H (high solubility if the threshold concentration is >250 μm)”. In series [5], the “turbidity threshold (L, M, H) 6.8” value is reported as “H (high solubility if the threshold concentration is >250 μm)”. The “turbidity threshold (L, M, H) 7.4” value in series [5] is reported as “H (high solubility if the threshold concentration is >250 μm)”.
On to `COc1ncnc2[nH]cc(C(=O)c3c(F)ccc(NS(=O)(=O)CC(C)C)c3F)c12` [P-1004, 2-Methyl-propane-1-sulfonic acid [2,4-difluoro-3-(4-methoxy-7H-pyrrolo[2,3-d]pyrimidine-5-carbonyl)-phenyl]-amide], for which the IC50 in series [1] was greater than 0.1 µM; in series [3] it was less than 0.1 µM; in series [4], less than 0.1 µM; in series [6] (human, 15 min), greater than 10 µM; in [7] (setting [12]) it was greater than 10 µM; in [8], 5 to 10 µM. The 50% inhibitory concentration (IC50) in series [9], in series [10] (setting [13]) and in [11] (setting [14]) was greater than 10 µM throughout. In series [2], the “Biochemical activity ratio B/V600E” value is greater than 10. The “Biochemical activity ratio B/C” value in series [2] is reported as greater than 10. The “Biochemical activity ratio V600E/C” value in [3] was 0.1-10. Also, the “turbidity threshold (L, M, H) 1.4” value in series [5] is “H (high solubility if the threshold concentration is >250 μm)”. Besides, the “turbidity threshold (L, M, H) 4.5” value in [5] is listed as “H (high solubility if the threshold concentration is >250 μm)”. The “turbidity threshold (L, M, H) 6.8” value in series [5] was “H (high solubility if the threshold concentration is >250 μm)”. Also, the “turbidity threshold (L, M, H) 7.4” value in [5] is “H (high solubility if the threshold concentration is >250 μm)”.
On to `O=C(c1c(F)ccc(NS(=O)(=O)c2ccc(C(F)(F)F)cc2)c1F)c1c[nH]c2ncnc(NC3COC3)c12` [P-1050, N-{2,4-Difluoro-3-[4-(oxetan-3-ylamino)-7H-pyrrolo[2,3-d]pyrimidine-5-carbonyl]-phenyl}-4-trifluoromethyl-benzenesulfonamide], for which the IC50 in series [1] was less than 0.1 µM; in series [3], less than 0.1 µM; in series [4], less than 0.1 µM; in [6] (read-out: Cyp IC50 1A2, CYP1A2, substrate CEC), greater than 10 µM; in [7] (setting [12]) it was greater than 10 µM; in series [8] (read-out: Cyp IC50 2C9, CYP2C9, substrate MFC), greater than 10 µM. In addition, the IC50 in series [9], in series [10] (setting [13]) and in [11] (setting [14]) was greater than 10 µM in each case. Further, in series [2], the “Biochemical activity ratio B/V600E” value is given as 0.1-10. The “Biochemical activity ratio B/C” value in series [2] is recorded as greater than 10. In addition, the “Biochemical activity ratio V600E/C” value in [3] is greater than 10. In addition, in series [5], the “turbidity threshold (L, M, H) 1.4” value is recorded as “H (high solubility if the threshold concentration is >250 μm)”. Moreover, in [5], the “turbidity threshold (L, M, H) 4.5” value is on record as “M (moderate solubility if the threshold concentration is 31.3 μM to 250 μM)”. For the same molecule, in series [5], the “turbidity threshold (L, M, H) 6.8” value is listed as “M (moderate solubility if the threshold concentration is 31.3 μM to 250 μM)”. For the same molecule, in [5], the “turbidity threshold (L, M, H) 7.4” value is given as “M (moderate solubility if the threshold concentration is 31.3 μM to 250 μM)”.
